Experimental data published in US20120255051A1, “HERBICIDE TOLERANT PLANTS” (priority 2009, published 2012).

Test system: Brassica plants comprising mutant AHAS alleles
Assay: Field trial, pre-planting treatment (0, 10, 20, 30 g a.i./ha), two locations in Canada: ERG, EST1, EST2, PPTOX, VIG1, VIG2, VIG3 scores
Type: in vivo, Brassica napus
Settings: ratio >1 = positive contribution
Text: Tests were set up and conducted to asses the growth and performance of plants comprising AHAS full knock-out alleles, and to further analyze the correlation between the presence of full knockout and missense AHAS genes in Brassica plants and plant growth and herbicide tolerance of the Brassica plants in the field. To this end, the Brassica plants identified in Example 1 and 2 were backcrossed two times with an elite parent line, and subsequently selfed twice to obtain homozygous plants (BC2S2). Plants were grown as row plots in a split plot design with three replicates (main plots=herbicide treatments, subplots=genotypes) at two locations in Canada. Treatment pre-planting was carried out on the soil about two days before sowing with a dose of 0 (treatment A), 10 (treatment B), 20 (treatment C) or 30 (treatment D) g a.i./ha of thiencarbazone methyl. Herbicide tolerance was measured by scoring for different parameters. The parameter emergence (ERG) was scored at the cotyledon stage on a scale 1-9, where 1 means late emergence and 9 means early emergence. Establishment was scored 14 days after sowing (EST1) and 21 days after sowing (EST2). Scores were from 1 to 9, where 1 is the worst establishment (least plants that emerged), and 9 is the best establishment (most plants emerged). Phytotoxicity (PPTOX) was determined after establishment. Plants were evaluated on a scale of 1 to 9, where 1=completely yellowing, 5=50% of plant is yellow and 9=no yellowing. The vigor scores (see above) were determined at 1-2 leaf stage (VIG1), 7 days after VIG1 (VIG2) and 14 days after VIG1 (VIG3). The average values (Av) and standard deviations (SD) of the scores for the different parameters are represented in Table 7a-g.
Further, the contribution of the knock-out allele to herbicide tolerance conferred by the missense allele was calculated. First, the scores were corrected for a possible effect of the growth per se, independent of herbicide treatment. To this end, the scores for treatments B, C and D were divided by the scores for treatment A for the same genotype and for the same parameter (corrected herbicide tolerance scores). Next, the effect of the knock-out allele to these corrected herbicide tolerance scores obtained by the missense allele was calculated. Therefore, the corrected herbicide tolerance scores for the missense—knock-out allele combination was divided by the corrected herbicide tolerance scores for the missense allele—wild-type combination. In case the knock-out allele has no effect on herbicide tolerance conferred by the missense allele, this ratio should be 1. In case the knock-out allele positively contributes to the herbicide tolerance conferred by the missense allele, this ratio should be higher than 1. The results for the contribution of the knock-out allele to herbicide tolerance conferred by the missense allele as calculated above are shown in table 8.

[1] = Location A, treatment B 10 g a.i./ha pre-planting
[2] = Location A, treatment C 20 g a.i./ha pre-planting
[3] = Location A, treatment D 30 g a.i./ha pre-planting
[4] = Location B, treatment B 10 g a.i./ha pre-planting
[5] = Location B, treatment C 20 g a.i./ha pre-planting
[6] = Location B, treatment D 30 g a.i./ha pre-planting

What does the source list for COC(=O)c1csc(C)c1S(=O)(=O)NC(=O)n1nc(OC)n(C)c1=O [thiencarbazone-methyl, methyl 4-[(4,5-dihydro-3-methoxy-4-methyl-5-oxo-1H-1,2,4-triazol-1-yl)carbonylsulfamoyl]-5-methylthiophene-3-carboxylate]?
relative contribution of HETO112 (AHAS1 KO) to herbicide tolerance conferred by HETO111 (AHAS3 missense): VIG2 [1]: 1.05; relative contribution of HETO112 (AHAS1 KO) to herbicide tolerance conferred by HETO111 (AHAS3 missense): VIG3 [1]: 1.14; relative contribution of HETO104 (AHAS3 KO) to herbicide tolerance conferred by HETO108 (AHAS1 missense): ERG [2]: 0.77; relative contribution of HETO104 (AHAS3 KO) to herbicide tolerance conferred by HETO108 (AHAS1 missense): EST1 [2]: 0.77; relative contribution of HETO104 (AHAS3 KO) to herbicide tolerance conferred by HETO108 (AHAS1 missense): EST2 [2]: 0.87; relative contribution of HETO104 (AHAS3 KO) to herbicide tolerance conferred by HETO108 (AHAS1 missense): PPTOX [2]: 1.03; relative contribution of HETO104 (AHAS3 KO) to herbicide tolerance conferred by HETO108 (AHAS1 missense): VIG1 [2]: 0.88; relative contribution of HETO104 (AHAS3 KO) to herbicide tolerance conferred by HETO108 (AHAS1 missense): VIG2 [2]: 0.90; relative contribution of HETO104 (AHAS3 KO) to herbicide tolerance conferred by HETO108 (AHAS1 missense): VIG3 [2]: 0.91; relative contribution of HETO112 (AHAS1 KO) to herbicide tolerance conferred by HETO111 (AHAS3 missense): ERG [2]: 1.20; relative contribution of HETO112 (AHAS1 KO) to herbicide tolerance conferred by HETO111 (AHAS3 missense): EST1 [2]: 1.19; relative contribution of HETO112 (AHAS1 KO) to herbicide tolerance conferred by HETO111 (AHAS3 missense): EST2 [2]: 1.19; relative contribution of HETO112 (AHAS1 KO) to herbicide tolerance conferred by HETO111 (AHAS3 missense): PPTOX [2]: 1.13; relative contribution of HETO112 (AHAS1 KO) to herbicide tolerance conferred by HETO111 (AHAS3 missense): VIG1 [2]: 1.11; relative contribution of HETO112 (AHAS1 KO) to herbicide tolerance conferred by HETO111 (AHAS3 missense): VIG2 [2]: 1.00; relative contribution of HETO112 (AHAS1 KO) to herbicide tolerance conferred by HETO111 (AHAS3 missense): VIG3 [2]: 1.05; relative contribution of HETO104 (AHAS3 KO) to herbicide tolerance conferred by HETO108 (AHAS1 missense): ERG [3]: 1.03; relative contribution of HETO104 (AHAS3 KO) to herbicide tolerance conferred by HETO108 (AHAS1 missense): EST1 [3]: 1.03; relative contribution of HETO104 (AHAS3 KO) to herbicide tolerance conferred by HETO108 (AHAS1 missense): EST2 [3]: 0.94; relative contribution of HETO104 (AHAS3 KO) to herbicide tolerance conferred by HETO108 (AHAS1 missense): PPTOX [3]: 0.90; relative contribution of HETO104 (AHAS3 KO) to herbicide tolerance conferred by HETO108 (AHAS1 missense): VIG1 [3]: 0.94; relative contribution of HETO104 (AHAS3 KO) to herbicide tolerance conferred by HETO108 (AHAS1 missense): VIG2 [3]: 0.89; relative contribution of HETO104 (AHAS3 KO) to herbicide tolerance conferred by HETO108 (AHAS1 missense): VIG3 [3]: 0.95; relative contribution of HETO112 (AHAS1 KO) to herbicide tolerance conferred by HETO111 (AHAS3 missense): ERG [3]: 1.28; relative contribution of HETO112 (AHAS1 KO) to herbicide tolerance conferred by HETO111 (AHAS3 missense): EST1 [3]: 1.36; relative contribution of HETO112 (AHAS1 KO) to herbicide tolerance conferred by HETO111 (AHAS3 missense): EST2 [3]: 1.18; relative contribution of HETO112 (AHAS1 KO) to herbicide tolerance conferred by HETO111 (AHAS3 missense): PPTOX [3]: 1.23; relative contribution of HETO112 (AHAS1 KO) to herbicide tolerance conferred by HETO111 (AHAS3 missense): VIG1 [3]: 1.18; relative contribution of HETO112 (AHAS1 KO) to herbicide tolerance conferred by HETO111 (AHAS3 missense): VIG2 [3]: 1.25; relative contribution of HETO112 (AHAS1 KO) to herbicide tolerance conferred by HETO111 (AHAS3 missense): VIG3 [3]: 1.21; relative contribution of HETO104 (AHAS3 KO) to herbicide tolerance conferred by HETO108 (AHAS1 missense): ERG [4]: 0.92; relative contribution of HETO104 (AHAS3 KO) to herbicide tolerance conferred by HETO108 (AHAS1 missense): EST1 [4]: 1.07; relative contribution of HETO104 (AHAS3 KO) to herbicide tolerance conferred by HETO108 (AHAS1 missense): EST2 [4]: 0.95; relative contribution of HETO104 (AHAS3 KO) to herbicide tolerance conferred by HETO108 (AHAS1 missense): PPTOX [4]: 0.78; relative contribution of HETO104 (AHAS3 KO) to herbicide tolerance conferred by HETO108 (AHAS1 missense): VIG1 [4]: 0.95; relative contribution of HETO104 (AHAS3 KO) to herbicide tolerance conferred by HETO108 (AHAS1 missense): VIG2 [4]: 1.08; relative contribution of HETO104 (AHAS3 KO) to herbicide tolerance conferred by HETO108 (AHAS1 missense): VIG3 [4]: 1.19; relative contribution of HETO112 (AHAS1 KO) to herbicide tolerance conferred by HETO111 (AHAS3 missense): ERG [4]: 0.99; relative contribution of HETO112 (AHAS1 KO) to herbicide tolerance conferred by HETO111 (AHAS3 missense): EST1 [4]: 1.00; relative contribution of HETO112 (AHAS1 KO) to herbicide tolerance conferred by HETO111 (AHAS3 missense): EST2 [4]: 1.06; relative contribution of HETO112 (AHAS1 KO) to herbicide tolerance conferred by HETO111 (AHAS3 missense): PPTOX [4]: 0.84; relative contribution of HETO112 (AHAS1 KO) to herbicide tolerance conferred by HETO111 (AHAS3 missense): VIG1 [4]: 0.89; relative contribution of HETO112 (AHAS1 KO) to herbicide tolerance conferred by HETO111 (AHAS3 missense): VIG2 [4]: 0.95; relative contribution of HETO112 (AHAS1 KO) to herbicide tolerance conferred by HETO111 (AHAS3 missense): VIG3 [4]: 1.04; relative contribution of HETO104 (AHAS3 KO) to herbicide tolerance conferred by HETO108 (AHAS1 missense): ERG [5]: 1.15; relative contribution of HETO104 (AHAS3 KO) to herbicide tolerance conferred by HETO108 (AHAS1 missense): EST1 [5]: 1.07; relative contribution of HETO104 (AHAS3 KO) to herbicide tolerance conferred by HETO108 (AHAS1 missense): EST2 [5]: 1.02; relative contribution of HETO104 (AHAS3 KO) to herbicide tolerance conferred by HETO108 (AHAS1 missense): PPTOX [5]: 1.28; relative contribution of HETO104 (AHAS3 KO) to herbicide tolerance conferred by HETO108 (AHAS1 missense): VIG1 [5]: 1.22; relative contribution of HETO104 (AHAS3 KO) to herbicide tolerance conferred by HETO108 (AHAS1 missense): VIG2 [5]: 1.15; relative contribution of HETO104 (AHAS3 KO) to herbicide tolerance conferred by HETO108 (AHAS1 missense): VIG3 [5]: 1.25; relative contribution of HETO112 (AHAS1 KO) to herbicide tolerance conferred by HETO111 (AHAS3 missense): ERG [5]: 0.92; relative contribution of HETO112 (AHAS1 KO) to herbicide tolerance conferred by HETO111 (AHAS3 missense): EST1 [5]: 1.13; relative contribution of HETO112 (AHAS1 KO) to herbicide tolerance conferred by HETO111 (AHAS3 missense): EST2 [5]: 1.07; relative contribution of HETO112 (AHAS1 KO) to herbicide tolerance conferred by HETO111 (AHAS3 missense): PPTOX [5]: 0.88; relative contribution of HETO112 (AHAS1 KO) to herbicide tolerance conferred by HETO111 (AHAS3 missense): VIG1 [5]: 0.93; relative contribution of HETO112 (AHAS1 KO) to herbicide tolerance conferred by HETO111 (AHAS3 missense): VIG2 [5]: 0.94; relative contribution of HETO112 (AHAS1 KO) to herbicide tolerance conferred by HETO111 (AHAS3 missense): VIG3 [5]: 0.98; relative contribution of HETO104 (AHAS3 KO) to herbicide tolerance conferred by HETO108 (AHAS1 missense): ERG [6]: 0.93; relative contribution of HETO104 (AHAS3 KO) to herbicide tolerance conferred by HETO108 (AHAS1 missense): EST1 [6]: 1.00
